For 15 molecules, IC50 results are on record in US11814367B2, “Inhibitors of glycogen synthase 1 (GYS1) and methods of use thereof” (Maze Therapeutics, Inc., priority 2021, dated 2023).

Test [1] has as its target hGYS1 enzyme (recombinant hGYS1/GN1 protein) (Homo sapiens (Human), UniProt P13807). As to the kind of experiment: GYS1 coupled enzyme assay (PK/LDH). Format: biochemical. The settings on record: hGYS1/GN1 50 nM, UDP-Glucose 0.8 mM, G6P 1 mM; geometric mean of at least 2 runs.
Test [2] concerns hGYS1 enzyme / glycogen synthesis in HeLa cells. Nature of the test: GYS1 cell based assay (glycogen synthesis, Glucose-glo). Further details: species or system human. The settings on record: Homo sapiens, HeLa, 24 h, 24 h incubation, 20 mM glucose, geometric mean of at least 2 runs. Put shortly: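 HeLa cells starved 24 h in medium containing only 1× Glutamax were plated onto compound in medium with 20 mM glucose (1% DMSO final) for 24 h, 37 °C, 5% CO2. Acid lysates were Tris-quenched, glucoamylase-digested (pH 5.3, 1 h, 37 °C) and read by Glucose-glo luminescence. IC50 came from Hill fits, as geometric mean of ≥2 runs.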

Test [3] deals with hGYS2 enzyme (recombinant hGYS2/GN1 protein) (Homo sapiens (Human), UniProt P54840). As to the kind of experiment: GYS2 coupled enzyme assay (PK/LDH). Format: biochemical. The settings on record: geometric mean of at least 2 assay runs on separate days, read-out: Avg_IC50. The method, boiled down:
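Recombinant hGYS2/GN1 (200 nM) with 2 mM UDP-glucose, 0.2% rabbit liver glycogen, 2 mM glucose-6-phosphate; UDP coupled via PK/LDH (2 mM PEP, 0.6 mM NADH). Buffer 50 mM Tris pH 7.5, 2 mM MgCl2, 100 mM KCl, 2.5% DMSO. A340 slope over 10 min; IC50 from Hill fit of duplicates.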

Chain of hGYS2 enzyme (recombinant hGYS2/GN1 protein) (P54840 whole entry): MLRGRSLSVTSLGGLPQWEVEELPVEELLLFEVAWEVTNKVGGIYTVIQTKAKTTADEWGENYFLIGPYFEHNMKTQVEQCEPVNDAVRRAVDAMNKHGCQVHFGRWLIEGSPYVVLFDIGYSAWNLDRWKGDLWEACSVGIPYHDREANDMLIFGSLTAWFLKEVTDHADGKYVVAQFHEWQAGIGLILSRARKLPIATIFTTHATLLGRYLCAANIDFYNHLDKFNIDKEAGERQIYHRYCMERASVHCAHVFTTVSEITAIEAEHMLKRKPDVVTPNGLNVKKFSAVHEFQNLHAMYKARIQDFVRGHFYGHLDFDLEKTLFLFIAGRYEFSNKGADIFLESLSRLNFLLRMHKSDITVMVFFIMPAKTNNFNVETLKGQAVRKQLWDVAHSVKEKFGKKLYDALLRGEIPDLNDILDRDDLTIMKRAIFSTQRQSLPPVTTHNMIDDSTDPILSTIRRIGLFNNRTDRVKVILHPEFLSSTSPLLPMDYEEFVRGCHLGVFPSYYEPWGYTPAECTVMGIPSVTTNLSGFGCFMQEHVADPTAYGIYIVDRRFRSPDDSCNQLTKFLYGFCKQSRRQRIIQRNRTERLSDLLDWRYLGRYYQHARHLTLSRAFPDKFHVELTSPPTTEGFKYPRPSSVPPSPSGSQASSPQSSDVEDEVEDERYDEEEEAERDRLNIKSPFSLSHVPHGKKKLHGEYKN
Chain of hGYS2 enzyme (recombinant hGYS2/GN1 protein) (P46976 whole entry partner): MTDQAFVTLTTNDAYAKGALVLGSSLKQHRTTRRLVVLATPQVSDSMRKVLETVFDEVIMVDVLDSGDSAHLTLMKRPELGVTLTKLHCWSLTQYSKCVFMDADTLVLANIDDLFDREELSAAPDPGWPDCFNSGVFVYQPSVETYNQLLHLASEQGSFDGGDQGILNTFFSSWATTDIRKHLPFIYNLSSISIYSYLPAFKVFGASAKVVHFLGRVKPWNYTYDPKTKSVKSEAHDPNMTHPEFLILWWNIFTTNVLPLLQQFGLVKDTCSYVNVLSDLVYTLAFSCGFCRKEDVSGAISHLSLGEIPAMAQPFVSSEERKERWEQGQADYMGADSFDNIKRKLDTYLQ
Chain of hGYS1 enzyme (recombinant hGYS1/GN1 protein) (P13807 whole entry): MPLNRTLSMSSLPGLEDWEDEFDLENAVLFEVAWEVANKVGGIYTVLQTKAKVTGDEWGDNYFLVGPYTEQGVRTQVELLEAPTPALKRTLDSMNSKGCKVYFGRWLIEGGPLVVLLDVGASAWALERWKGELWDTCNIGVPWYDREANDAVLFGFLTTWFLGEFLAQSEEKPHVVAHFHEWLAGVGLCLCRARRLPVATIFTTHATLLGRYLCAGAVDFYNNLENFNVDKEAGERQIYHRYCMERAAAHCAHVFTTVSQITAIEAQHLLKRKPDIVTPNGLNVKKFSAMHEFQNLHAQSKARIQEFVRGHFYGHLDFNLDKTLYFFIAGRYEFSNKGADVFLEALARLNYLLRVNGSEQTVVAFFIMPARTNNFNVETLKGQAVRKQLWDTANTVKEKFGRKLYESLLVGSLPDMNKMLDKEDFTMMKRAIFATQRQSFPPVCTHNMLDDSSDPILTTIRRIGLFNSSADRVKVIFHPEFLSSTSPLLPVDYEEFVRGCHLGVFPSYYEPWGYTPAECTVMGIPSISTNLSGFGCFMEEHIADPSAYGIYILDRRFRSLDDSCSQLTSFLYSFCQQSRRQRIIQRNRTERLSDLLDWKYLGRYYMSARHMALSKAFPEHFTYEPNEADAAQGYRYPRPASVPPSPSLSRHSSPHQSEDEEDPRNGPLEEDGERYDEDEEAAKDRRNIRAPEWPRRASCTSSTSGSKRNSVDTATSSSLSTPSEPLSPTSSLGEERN
Chain of hGYS1 enzyme (recombinant hGYS1/GN1 protein) (P46976 whole entry partner): as the sequence (P46976 whole entry partner) above

Regarding `CC(C)c1ccc([C@@H](NC(=O)[C@@H]2C[C@@H](F)CN2C(=O)Cn2nnnc2C(F)F)c2ccccc2)nc1F` [Compound 400, (2S,4R)-1-{2-[5-(difluoromethyl)-1H-1,2,3,4-tetrazol-1-yl]acetyl}-4-fluoro-N-[(S)-[6-fluoro-5-(propan-2-yl)pyridin-2-yl](phenyl)methyl] pyrrolidine-2-carboxamide], the IC50 in test [1] is 12 nM; in test [2], 170 nM; in test [3] it was more than 100000 nM.
Take `CC(C)c1ccc([C@@H](NC(=O)[C@@H]2C[C@@H](F)CN2C(=O)Cc2nn(C)c(=O)o2)c2ccccc2)nc1F` [Compound 401, (2S,4R)-4-fluoro-N-[(S)-[6-fluoro-5-(propan-2-yl)pyridin-2-yl](phenyl)methyl]-1-[2-(4-methyl-5-oxo-4,5-dihydro-1,3,4-oxadiazol-2-yl)acetyl]pyrrolidine-2-carboxamide]: the IC50 in test [1] was 10 nM; in test [2], 290 nM; in test [3], more than 100000 nM.
Regarding `CC(C)c1ccc([C@@H](NC(=O)[C@@H]2C[C@@H](F)CN2C(=O)Cc2noc(=O)n2C)c2ccccc2)nc1F` [Compound 402, (2S,4R)-4-fluoro-N-[(S)-[6-fluoro-5-(propan-2-yl)pyridin-2-yl](phenyl)methyl]-1-[2-(4-methyl-5-oxo-4,5-dihydro-1,2,4-oxadiazol-3-yl)acetyl]pyrrolidine-2-carboxamide], the IC50 in test [1] was 59 nM; in test [2] it was 850 nM; in test [3], more than 100000 nM.
Turning to `CC(C)c1ccc([C@@H](NC(=O)[C@@H]2C[C@@H](F)CN2C(=O)Cc2[nH]nnc2C(F)(F)F)c2ccccc2)nc1F` [Compound 403, (2S,4R)-4-fluoro-N-[(S)-[6-fluoro-5-(propan-2-yl)pyridin-2-yl](phenyl)methyl]-l-{2-[4-(trifluoromethyl)-1H-1,2,3-triazol-5-yl]acetyl}pyrrolidine-2-carboxamide], the results for the IC50 in test [1], in test [2] and in test [3] were 4 nM, 140 nM and more than 100000 nM, respectively.
As to `Cc1nccc(NCC(=O)N2C[C@H](F)C[C@H]2C(=O)N[C@@H](c2ccccc2)c2ccc(C(C)C)c(F)n2)n1` [Compound 404, (2S,4R)-4-fluoro-N-[(S)-[6-fluoro-5-(propan-2-yl)pyridin-2-yl](phenyl)methyl]-1-{2-[(2-methylpyrimidin-4-yl)amino]acetyl} pyrrolidine-2-carboxamide], the IC50 in test [1] is 6 nM; in test [2], 70 nM; in test [3] it was more than 100000 nM.
For `CC(C)c1ccc([C@@H](NC(=O)[C@@H]2C[C@@H](F)CN2C(=O)[C@H](C)NC(=O)N(C)C)c2ccccc2)nc1F` [Compound 405, (2S,4R)-1-[(2S)-2-[(dimethylcarbamoyl)amino]propanoyl]-4-fluoro-N-[(S)-[6-fluoro-5-(propan-2-yl)pyridin-2-yl](phenyl)methyl] pyrrolidine-2-carboxamide], in that order: 20 nM, 490 nM and more than 100000 nM.
`CC(C)c1ccc([C@@H](NC(=O)[C@@H]2C[C@@H](F)CN2C(=O)[C@@H](C)NC(=O)N(C)C)c2ccccc2)nc1F` [Compound 406, (2S,4R)-1-[(2R)-2-[(dimethylcarbamoyl)amino]propanoyl]-4-fluoro-N-[(S)-[6-fluoro-5-(propan-2-yl)pyridin-2-yl](phenyl)methyl] pyrrolidine-2-carboxamide]: the IC50 in test [1] is 41 nM; in test [2], 760 nM; in test [3], more than 100000 nM.
Regarding `CC(C)c1ccc([C@@H](NC(=O)[C@@H]2C[C@@H](F)CN2C(=O)Cc2ncco2)c2ccccc2)nc1F` [Compound 407, (2S,4R)-4-fluoro-N-[(S)-[6-fluoro-5-(propan-2-yl)pyridin-2-yl](phenyl)methyl]-1-[2-(1,3-oxazol-2-yl)acetyl]pyrrolidine-2-carboxamide], the IC50 in test [1] is 15 nM; in test [2], 420 nM; in test [3], more than 100000 nM.
Regarding `Cc1cnc(CC(=O)N2C[C@H](F)C[C@H]2C(=O)N[C@@H](c2ccccc2)c2ccc(C(C)C)c(F)n2)o1` [Compound 408, (2S,4R)-4-fluoro-N-[(S)-[6-fluoro-5-(propan-2-yl)pyridin-2-yl](phenyl)methyl]-1-[2-(5-methyl-1,3-oxazol-2-yl)acetyl] pyrrolidine-2-carboxamide], the IC50 in test [1] was 8 nM; in test [2] it was 350 nM; in test [3], more than 100000 nM.
With `Cc1coc(CC(=O)N2C[C@H](F)C[C@H]2C(=O)N[C@@H](c2ccccc2)c2ccc(C(C)C)c(F)n2)n1` [Compound 409, (2S,4R)-4-fluoro-N-[(S)-[6-fluoro-5-(propan-2-yl)pyridin-2-yl](phenyl)methyl]-1-[2-(4-methyl-1,3-oxazol-2-yl)acetyl] pyrrolidine-2-carboxamide], the IC50 was 10 nM in test [1], 290 nM in test [2] and more than 100000 nM in test [3].
For `CC(C)c1ccc([C@@H](NC(=O)[C@@H]2C[C@@H](F)CN2C(=O)CNC(=O)N2CC(F)(F)C2)c2ccccc2)nc1F` [Compound 410, (2S,4R)-1-{2-[(3,3-difluoroazetidine-1-carbonyl)amino]acetyl}-4-fluoro-N-[(S)-[6-fluoro-5-(propan-2-yl)pyridin-2-yl](phenyl)methyl]pyrrolidine-2-carboxamide], in that order: 8 nM, 130 nM and more than 100000 nM.
Regarding `Cc1nn(CC(=O)N2C[C@H](F)C[C@H]2C(=O)N[C@@H](c2ccccc2)c2ccc(C(C)C)c(F)n2)c(=O)o1` [Compound 411, (2S,4R)-4-fluoro-N-[(S)-[6-fluoro-5-(propan-2-yl)pyridin-2-yl](phenyl)methyl)-1-[2-(5-methyl-2-oxo-2,3-dihydro-1,3,4-oxadiazol-3-yl)acetyl]pyrrolidine-2-carboxamide], the IC50 in test [1] was 10 nM; in test [2], 220 nM; in test [3], more than 100000 nM.
With `CC(C)c1ccc([C@@H](NC(=O)[C@@H]2C[C@@H](F)CN2C(=O)Cn2ncc(N3CCC3)n2)c2ccccc2)nc1F` [Compound 412, (2S,4R)-1-{2-[4-(azetidin-1-yl)-2H-1,2,3-triazol-2-yl]acetyl}-4-fluoro-N-[(S)-[6-fluoro-5-(propan-2-yl)pyridin-2-yl](phenyl)methyl] pyrrolidine-2-carboxamide], the values for the IC50 in test [1], in test [2] and in test [3] were 7 nM, 120 nM and more than 100000 nM, respectively.
Consider `CC(C)c1ccc([C@@H](NC(=O)[C@@H]2C[C@@H](F)CN2C(=O)Cn2ncc(N3CC(F)(F)C3)n2)c2ccccc2)nc1F` [Compound 413, (2S,4R)-1-{2-[4-(3,3-difluoroazetidin-1-yl)-2H-1,2,3-triazol-2-yl]acetyl}-4-fluoro-N-[(S)-[6-fluoro-5-(propan-2-yl)pyridin-2-yl](phenyl)methyl] pyrrolidine-2-carboxamide], for which the IC50 in test [1] was 6 nM; in test [2], 160 nM; in test [3], more than 100000 nM.
In the same order, the values of `CCN(CC)c1cnn(CC(=O)N2C[C@H](F)C[C@H]2C(=O)N[C@@H](c2ccccc2)c2ccc(C(C)C)c(F)n2)n1` [Compound 414] are 3 nM, 60 nM and 78700 nM.
